From ChEMBL document CHEMBL1135452, “Side-chain homologation of nodulisporic acid: synthesis of potent new dienyl derivatives” (Bioorg Med Chem Lett, 2002)

System: Pulicinae
Assay: In vitro systemic flea efficacy using membrane feeding assay.
Format: functional

Row | Compound | Activity [p.p.m.]
1 | C=CC/C(=C\C=C\[C@]1(C)[C@@H](O)CC[C@@]2(C)[C@H]1CCC1Cc3c(n4c5c(c6c(cc35)C3=CC(C)(C)OC(C)(C)C3[C@@H]6O)C(=O)[C@@H]4C(=C)C)[C@@]12C)C(=O)NC(C)(C)C (stereo not given in full) | 10
2 | C=C(C)[C@H]1C(=O)c2c3c(cc4c5c(n1c24)[C@@]1(C)C(CC[C@H]2[C@](C)(/C=C/C=C\C(N)=O)[C@@H](O)CC[C@@]21C)C5)C1=CC(C)(C)OC(C)(C)C1[C@@H]3O (stereo not given in full) | 10
3 | C=C(C)[C@H]1C(=O)c2c3c(cc4c5c(n1c24)[C@@]1(C)C(CC[C@H]2[C@](C)(/C=C/C(C)=C/C(=O)NC(C)C)[C@@H](O)CC[C@@]21C)C5)C1=CC(C)(C)OC(C)(C)C1[C@@H]3O (stereo not given in full) | 1
4 | C=C(C)[C@H]1C(=O)c2c3c(cc4c5c(n1c24)[C@@]1(C)C(CC[C@H]2[C@](C)(/C=C/C=C(\CCC)C(=O)NC(C)(C)C)[C@@H](O)CC[C@@]21C)C5)C1=CC(C)(C)OC(C)(C)C1[C@@H]3O (stereo not given in full) | 10
5 | C=CC/C(=C\C=C\[C@]1(C)[C@@H](O)CC[C@@]2(C)[C@H]1CCC1Cc3c(n4c5c(c6c(cc35)C3=CC(C)(C)OC(C)(C)C3[C@@H]6O)C(=O)[C@@H]4C(=C)C)[C@@]12C)C(=O)OC (stereo not given in full) | 10
6 | C=C(C)[C@H]1C(=O)c2c3c(cc4c5c(n1c24)[C@@]1(C)C(CC[C@H]2[C@](C)(/C=C/C=C(\CC)C(N)=O)[C@@H](O)CC[C@@]21C)C5)C1=CC(C)(C)OC(C)(C)C1[C@@H]3O (stereo not given in full) | 1
7 | C=C(C)[C@H]1C(=O)c2c3c(cc4c5c(n1c24)[C@@]1(C)C(CC[C@H]2[C@](C)(/C=C/C=C(\CCCC)C(=O)NC(C)(C)C)[C@@H](O)CC[C@@]21C)C5)C1=CC(C)(C)OC(C)(C)C1[C@@H]3O (stereo not given in full) | 10
8 | C=C(C)[C@H]1C(=O)c2c3c(cc4c5c(n1c24)[C@@]1(C)C(CC[C@H]2[C@](C)(/C=C/C=C(\CC)C(=O)NCC)[C@@H](O)CC[C@@]21C)C5)C1=CC(C)(C)OC(C)(C)C1[C@@H]3O (stereo not given in full) | 1
9 | C=C(C)[C@H]1C(=O)c2c3c(cc4c5c(n1c24)[C@@]1(C)C(CC[C@H]2[C@](C)(/C=C/C(C)=C/C(=O)NC4CC4)[C@@H](O)CC[C@@]21C)C5)C1=CC(C)(C)OC(C)(C)C1[C@@H]3O (stereo not given in full) | 1
10 | C=C(C)[C@H]1C(=O)c2c3c(cc4c5c(n1c24)[C@@]1(C)C(CC[C@H]2[C@](C)(/C=C/C=C/C(=O)NCC)[C@@H](O)CC[C@@]21C)C5)C1=CC(C)(C)OC(C)(C)C1[C@@H]3O (stereo not given in full) | 1
11 | C=C(C)[C@H]1C(=O)c2c3c(cc4c5c(n1c24)[C@@]1(C)C(CC[C@H]2[C@](C)(/C=C/C=C(\OC)C(=O)NC(C)(C)C)[C@@H](O)CC[C@@]21C)C5)C1=CC(C)(C)OC(C)(C)C1C3 (stereo not given in full) | > 10
12 | C=C(C)[C@H]1C(=O)c2c3c(cc4c5c(n1c24)[C@@]1(C)C(CC[C@H]2[C@](C)(/C=C/C=C/C(=O)NCc4ccccc4)[C@@H](O)CC[C@@]21C)C5)C1=CC(C)(C)OC(C)(C)C1[C@@H]3O (stereo not given in full) | 10
13 | C=C(C)[C@H]1C(=O)c2c3c(cc4c5c(n1c24)[C@@]1(C)C(CC[C@H]2[C@](C)(/C=C/C=C(\C#N)C(=O)N(C)C)[C@@H](O)CC[C@@]21C)C5)C1=CC(C)(C)OC(C)(C)C1[C@@H]3O (stereo not given in full) | 1
14 | C=C(C)[C@H]1C(=O)c2c3c(cc4c5c(n1c24)[C@@]1(C)C(CC[C@H]2[C@](C)(/C=C/C=C/C(=O)N4CCCC4)[C@@H](O)CC[C@@]21C)C5)C1=CC(C)(C)OC(C)(C)C1[C@@H]3O (stereo not given in full) | 1
15 | C=C(C)[C@H]1C(=O)c2c3c(cc4c5c(n1c24)[C@@]1(C)C(CC[C@H]2[C@](C)(/C=C/C=C(\OC)C(=O)NCC)[C@@H](O)CC[C@@]21C)C5)C1=CC(C)(C)OC(C)(C)C1[C@@H]3O (stereo not given in full) | 10
16 | C=C(C)[C@H]1C(=O)c2c3c(cc4c5c(n1c24)[C@@]1(C)C(CC[C@H]2[C@](C)(/C=C/C=C(\CCC)C(=O)O)[C@@H](O)CC[C@@]21C)C5)C1=CC(C)(C)OC(C)(C)C1[C@@H]3O (stereo not given in full) | > 10
17 | C=C(C)[C@H]1C(=O)c2c3c(cc4c5c(n1c24)[C@@]1(C)C(CC[C@H]2[C@](C)(/C=C/C=C/C(=O)N(C)C)[C@@H](O)CC[C@@]21C)C5)C1=CC(C)(C)OC(C)(C)C1[C@@H]3O (stereo not given in full) | 0.1
18 | C=C(C)[C@H]1C(=O)c2c3c(cc4c5c(n1c24)[C@@]1(C)C(CC[C@H]2[C@](C)(/C=C/C=C(\OC)C(=O)NC(C)(C)C)[C@@H](O)CC[C@@]21C)C5)C1=CC(C)(C)OC(C)(C)C1[C@@H]3O (stereo not given in full) | 1
19 | C=C(C)[C@H]1C(=O)c2c3c(cc4c5c(n1c24)[C@@]1(C)C(CC[C@H]2[C@](C)(/C=C/C=C(\CC)C(=O)NC(C)(C)C)[C@@H](O)CC[C@@]21C)C5)C1=CC(C)(C)OC(C)(C)C1[C@@H]3O (stereo not given in full) | 1
20 | C=C(C)[C@H]1C(=O)c2c3c(cc4c5c(n1c24)[C@@]1(C)C(CC[C@H]2[C@](C)(/C=C/C=C/C(C)=O)[C@@H](O)CC[C@@]21C)C5)C1=CC(C)(C)OC(C)(C)C1[C@@H]3O (stereo not given in full) | 10
